Test: recombinant barcode read abundance after kanamycin selection (control-corrected) (log10(CPM+1)); higher = more efficient recombination; sequences stand for … in AGTGCAGAGAAAATCGGCCAGTTTTCTCTGCCTGCAGTCCGCATGCCGT…AGATTTATGCAGCGGACTGCCTTTCTCCCAAAGTGATAAACCGGACAGTATCATGGACCGGTTTTCCCGGTAATCCGTATTTGCAAGGTTGGTTTCACT; site = the 11-nt target
Method: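 Pooled E. coli target-specificity screen for the IS621 bridge recombinase. Each library plasmid pairs an 11-nt target (CT core) with a bridge RNA whose target-binding loop (9-nt LTG + 4-nt RTG) is reprogrammed; the rest of the 177-nt WT IS621 bridge RNA scaffold is fixed. The plasmid is co-electroporated with a WT donor plasmid; recombinase is induced with 0.1 mM IPTG and recombinants are selected on kanamycin. Recombinant barcodes are sequenced, converted to CPM, averaged over two biological replicates and corrected by the unselected control CPM. Molecule = full bridge RNA written as DNA: LTG = specificity nt 1-9, RTG = reverse complement of specificity nt 8-11, in the WT scaffold.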
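Also: IS621 recombinase and bridge RNA in Escherichia coli cells.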

Row | Sequence | recombinant barcode read abundance (log10)
1 | AGCTGATCTTGGGTTCTAACCTGTTGCCT (site TGCTGATCTAG) | 0.015
2 | AGCTGGGCTTGGGTTCTAACCTGTTGCGG (site AGCTGGGCTCC) | 1.6
3 | AGCTGGGCTTGGGTTCTAACCTGTTGCGG (site AGTTGGGCTCA) | 0.393
4 | AGCTTAGCTTGGGTTCTAACCTGTTGCCT (site AGCTTAGCTAG) | 0.555
5 | AGCTTAGCTTGGGTTCTAACCTGTTGCCT (site AGCTTAGCTCG) | 0.577
6 | AGCTTAGCTTGGGTTCTAACCTGTTGCCT (site AGCTTAGCTGG) | 0.206
7 | AGCTTAGCTTGGGTTCTAACCTGTTGCCT (site AGCTTAGCTTG) | 0.158
8 | AGGAACCCTTGGGTTCTAACCTGTTGCTA (site AGGAACCCTAA) | 0.316
9 | AGGAACCCTTGGGTTCTAACCTGTTGCTA (site AGGAACCCTCA) | 0.0647
10 | AGGAACCCTTGGGTTCTAACCTGTTGCTA (site AGGAACCCTGA) | 0.02
11 | AGGAACCCTTGGGTTCTAACCTGTTGCTA (site AGGAACCCTTA) | 1.44
12 | AGGAACCCTTGGGTTCTAACCTGTTGCTC (site AGGAACCCTAA) | 0.19
13 | AGGAACCCTTGGGTTCTAACCTGTTGCTC (site AGGAACCCTCA) | 1.05
14 | AGGAACCCTTGGGTTCTAACCTGTTGCTC (site AGGAACCCTGA) | 0.574
15 | AGGAACCCTTGGGTTCTAACCTGTTGCTC (site AGGAACCCTTA) | 0.0757
16 | AGGAACTCTTGGGTTCTAACCTGTTGCCT (site AGGAACTCTAG) | 2.52
17 | AGGAACTCTTGGGTTCTAACCTGTTGCCT (site CGGAACTCTAG) | 0.573
18 | AGGAATCCTTGGGTTCTAACCTGTTGCTT (site AGGAATCCTAA) | 0.901
19 | AGGAATCCTTGGGTTCTAACCTGTTGCTT (site AGGAGTCCTCA) | 0.0229
20 | AGGACAACTTGGGTTCTAACCTGTTGCCT (site AGAACAACTAG) | 0.106
21 | AGGACAACTTGGGTTCTAACCTGTTGCCT (site AGCACAACTAG) | 0.155

Row | Sequence | recombinant barcode read abundance (log10)
22 | AGGACAACTTGGGTTCTAACCTGTTGCCT (site AGGACAACTAG) | 0.048
23 | AGGACAACTTGGGTTCTAACCTGTTGCCT (site AGTACAACTAG) | 0.181
24 | AGGAGCCCTTGGGTTCTAACCTGTTGCCT (site AGGAGCCCTAG) | 1.48
25 | AGGAGCCCTTGGGTTCTAACCTGTTGCCT (site AGGAGCCCTTG) | 0.0624
26 | AGGAGTACTTGGGTTCTAACCTGTTGCTT (site AGGAGTACTAA) | 0.761
27 | AGGAGTACTTGGGTTCTAACCTGTTGCTT (site GCATCCTCTTG) | 0.12
28 | AGGCCCACTTGGGTTCTAACCTGTTGCAT (site AGGCCCACTAT) | 2.12
29 | AGGCCCACTTGGGTTCTAACCTGTTGCAT (site GCTGAGTCTTA) | 0.109
30 | AGGCCGGCTTGGGTTCTAACCTGTTGCCG (site AGGCCGCCTCG) | 0.294
31 | AGGCCGGCTTGGGTTCTAACCTGTTGCCG (site AGGCCGGCTCG) | 0.329
32 | AGGCCGTCTTGGGTTCTAACCTGTTGCGG (site AGGCCGTCTCC) | 0.815
33 | AGGCCGTCTTGGGTTCTAACCTGTTGCGG (site CACTACCCTAA) | 0.357
34 | AGGCGCCCTTGGGTTCTAACCTGTTGCAC (site AGGCGCCCTAT) | 0.249
35 | AGGCGCCCTTGGGTTCTAACCTGTTGCAC (site AGGCGCCCTCT) | 0.112
36 | AGGCGCCCTTGGGTTCTAACCTGTTGCAC (site AGGCGCCCTGT) | 1.33
37 | AGGCGCCCTTGGGTTCTAACCTGTTGCAC (site AGGCGCCCTTT) | 0.0439
38 | AGGCGTACTTGGGTTCTAACCTGTTGCCT (site AGACGTACTAG) | 0.0558
39 | AGGCGTACTTGGGTTCTAACCTGTTGCCT (site AGCCGTACTAG) | 0.302
40 | AGGCGTACTTGGGTTCTAACCTGTTGCCT (site AGGCGTACTAG) | 0.465
41 | AGGCGTACTTGGGTTCTAACCTGTTGCCT (site AGTCGTACTAG) | 0.0768
42 | AGGCGTCCTTGGGTTCTAACCTGTTGCCA (site AGGCGTCCTAG) | 0.181

Row | Sequence | recombinant barcode read abundance (log10)
43 | AGGCGTCCTTGGGTTCTAACCTGTTGCCA (site AGGCGTCCTCG) | 0.056
44 | AGGCGTCCTTGGGTTCTAACCTGTTGCCA (site AGGCGTCCTGG) | 0.315
45 | AGGCGTCCTTGGGTTCTAACCTGTTGCCA (site AGGCGTCCTTG) | 0.802
46 | AGGCTCCCTTGGGTTCTAACCTGTTGCCT (site AGACTCCCTAG) | 0.193
47 | AGGCTCCCTTGGGTTCTAACCTGTTGCCT (site AGCCTCCCTAG) | 0.0453
48 | AGGCTCCCTTGGGTTCTAACCTGTTGCCT (site AGGCTCCCTAG) | 0.547
49 | AGGCTCCCTTGGGTTCTAACCTGTTGCCT (site AGTCTCCCTAG) | 0.619
50 | AGGCTGTCTTGGGTTCTAACCTGTTGCCT (site AGGCTGACTAG) | 0.54
51 | AGGCTGTCTTGGGTTCTAACCTGTTGCCT (site AGGCTGCCTAG) | 0.613
52 | AGGCTGTCTTGGGTTCTAACCTGTTGCCT (site AGGCTGGCTAG) | 0.0597
53 | AGGCTGTCTTGGGTTCTAACCTGTTGCCT (site AGGCTGTCTAG) | 1.84
54 | AGGGAAGCTTGGGTTCTAACCTGTTGCCT (site AGGGAAGCTAG) | 0.879
55 | AGGGAAGCTTGGGTTCTAACCTGTTGCCT (site AGGGCAGCTAG) | 0.385
56 | AGGGAAGCTTGGGTTCTAACCTGTTGCCT (site AGGGGAGCTAG) | 0.768
57 | AGGGAAGCTTGGGTTCTAACCTGTTGCCT (site AGGGTAGCTAG) | 0.391
58 | AGGGAATCTTGGGTTCTAACCTGTTGCCT (site AGAGAATCTAG) | 0.759
59 | AGGGAATCTTGGGTTCTAACCTGTTGCCT (site AGCGAATCTAG) | 0.124
60 | AGGGAATCTTGGGTTCTAACCTGTTGCCT (site AGGGAATCTAG) | 1.04
61 | AGGGAATCTTGGGTTCTAACCTGTTGCCT (site AGTGAATCTAG) | 0.182
62 | AGGGATACTTGGGTTCTAACCTGTTGCGT (site AGGGATACTAC) | 3.32
63 | AGGGATACTTGGGTTCTAACCTGTTGCGT (site ATGGATACTAC) | 1.58

Row | Sequence | recombinant barcode read abundance (log10)
64 | AGGGATACTTGGGTTCTAACCTGTTGCTT (site AGGGAGACTAA) | 0.303
65 | AGGGATACTTGGGTTCTAACCTGTTGCTT (site AGGGATACTAA) | 1.42
66 | AGGGCATCTTGGGTTCTAACCTGTTGCCT (site AGGGCATCTAG) | 0.122
67 | AGGGCATCTTGGGTTCTAACCTGTTGCCT (site AGGGCGTCTCG) | 0.245
68 | AGGGTCGCTTGGGTTCTAACCTGTTGCCT (site AGGGTCGCTAG) | 2.5
69 | AGGGTCGCTTGGGTTCTAACCTGTTGCCT (site CACAGTCCTTA) | 0.344
70 | AGGGTGCCTTGGGTTCTAACCTGTTGCTA (site AGGGTGCCTTA) | 2.11
71 | AGGGTGCCTTGGGTTCTAACCTGTTGCTA (site AGGGTGTCTCA) | 0.106
72 | AGGGTTCCTTGGGTTCTAACCTGTTGCTT (site AGGGTTCCTAA) | 2.05
73 | AGGGTTCCTTGGGTTCTAACCTGTTGCTT (site TCATGGGCTCT) | 0.0235
74 | AGGTAGACTTGGGTTCTAACCTGTTGCCA (site AGGAAGACTTG) | 0.0263
75 | AGGTAGACTTGGGTTCTAACCTGTTGCCA (site AGGCAGACTTG) | 0.583
76 | AGGTAGACTTGGGTTCTAACCTGTTGCCA (site AGGGAGACTTG) | 0.179
77 | AGGTAGACTTGGGTTCTAACCTGTTGCCA (site AGGTAGACTTG) | 1.5
78 | AGGTCACCTTGGGTTCTAACCTGTTGCGT (site AGGTCACCTAA) | 0.276
79 | AGGTCACCTTGGGTTCTAACCTGTTGCGT (site AGGTCACCTAC) | 2.82
80 | AGGTCACCTTGGGTTCTAACCTGTTGCGT (site AGGTCACCTAG) | 0.536
81 | AGGTCACCTTGGGTTCTAACCTGTTGCGT (site AGGTCACCTAT) | 1.08
82 | AGGTCACCTTGGGTTCTAACCTGTTGCTT (site AGGTCACCTAA) | 0.941

Source: the supplement of paper PMC11208160
